Results from patent US20230167122A1, “PESTICIDALLY ACTIVE HETEROCYCLIC DERIVATIVES WITH SULFUR CONTAINING SUBSTITUENTS” (SYNGENTA CROP PROTECTION AG, priority 2020, published 2023).

Experiments:
Format in all cases: in vivo
[1] = tested on: Bemisia tabaci (Cotton White Fly); experiment: Example B1: Activity against Bemisia tabaci (cotton white fly), sprayed cotton leaf discs; details: foliar, 144 h, application rate of 200 ppm, adult white flies on cotton leaf discs, 6 days after incubation
Description: Example B1: Activity Against Bemisia tabaci (Cotton White Fly)
Cotton leaf discs were placed on agar in 24-well microtiter plates and sprayed with aqueous test solutions prepared from 10′000 ppm DMSO stock solutions. After drying the leaf discs were infested with adult white flies. The samples were checked for mortality 6 days after incubation.

[2] = tested on: Myzus persicae (Green Peach Aphid); experiment: Example B6: Activity against Myzus persicae (green peach aphid), sprayed sunflower leaf discs; details: foliar, 144 h, application rate of 200 ppm, aphid population of mixed ages on sunflower leaf discs, 6 days after infestation
Description: Example B6: Activity Against Myzus persicae (Green Peach Aphid)
Sunflower leaf discs were placed on agar in a 24-well microtiter plate and sprayed with aqueous test solutions prepared from 10′000 ppm DMSO stock solutions. After drying, the leaf discs were infested with an aphid population of mixed ages. The samples were assessed for mortality 6 days after infestation.

[3] = tested on: Nilaparvata lugens (Brown Plant Hopper); experiment: Example B12: Activity against Nilaparvata lugens (brown plant hopper), larvicide, systemic into water; details: 168 h, application rate of 12.5 ppm, systemic into nutritive solution, rice plants, N3 nymphs, 7 days after infestation
Description: Example B12: Activity Against Nilaparvata lugens (Brown Plant Hopper) Larvicide, Systemic into Water
Rice plants cultivated in a nutritive solution were treated with the diluted test solutions into nourishing cultivation system. 1 day after application plants were infested with ˜20 N3 nymphs. 7 days after infestation samples were assessed for mortality and growth regulation.

[4] = tested on: Nilaparvata lugens (Brown Plant Hopper); experiment: Example B11: Activity against Nilaparvata lugens (brown plant hopper), larvicide, feeding/contact; details: 168 h, application rate of 50 ppm, N3 nymphs on sprayed rice plants, 7 days after the treatment
Description: Example B11: Activity Against Nilaparvata lugens (Brown Plant Hopper) Larvicide, Feeding/Contact
Rice plants were treated with the diluted test solutions in a spray chamber. After drying plants were infested with ˜20 N3 nymphs. 7 days after the treatment samples were assessed for mortality and growth regulation.

[5] = tested on: Euschistus heros (Neotropical Brown Stink Bug); experiment: Example B3: Activity against Euschistus heros (neotropical brown stink bug), sprayed soybean leaf; details: 120 h, application rate of 200 ppm, N-2 nymphs on soybean leaf, 5 days after infestation, read-out: effect in at least one of the two categories (mortality or growth inhibition)
Description: Example B3: Activity Against Euschistus heros (Neotropical Brown Stink Bug)
Soybean leaf on agar in 24-well microtiter plates were sprayed with aqueous test solutions prepared from 10′000 ppm DMSO stock solutions. After drying the leaf were infested with N-2 nymphs. The samples were assessed for mortality and growth inhibition in comparison to untreated samples 5 days after infestation.

[6] = tested on: Plutella xylostella (Diamond Back Moth); experiment: Example B8: Activity against Plutella xylostella (diamond back moth), L2 larvae, artificial diet; details: 120 h, application rate of 200 ppm, 5 days after infestation, read-out: effect in at least one of the two categories (mortality or growth inhibition)
Description: Example B8: Activity Against Plutella xylostella (Diamond Back Moth)
(§1) 24-well microtiter plates with artificial diet were treated with aqueous test solutions prepared from 10′000 ppm DMSO stock solutions by pipetting. After drying, the plates were infested with L2 larvae (10 to 15 per well). The samples were assessed for mortality and growth inhibition in comparison to untreated samples 5 days after infestation.

[7] = tested on: Diabrotica balteata (Corn Root Worm); experiment: Example B2: Activity against Diabrotica balteata (corn root worm), sprayed maize sprouts; details: 96 h, application rate of 200 ppm, L2 larvae on maize sprouts, 4 days after infestation, read-out: effect in at least one of the two categories (mortality or growth inhibition)
Description: Example B2: Activity Against Diabrotica balteata (Corn Root Worm)
as §1, with “Maize sprouts placed onto an agar layer in 24-well” for “24-well”, “plates” for “plates with artificial diet”, “spraying.” for “pipetting.”, “(6” for “(10”, “10” for “15”, “4” for “5”

[8] = tested on: Spodoptera littoralis (Egyptian Cotton Leaf Worm); experiment: Example B9: Activity against Spodoptera littoralis (Egyptian cotton leaf worm), sprayed cotton leaf discs; details: foliar, 72 h, application rate of 200 ppm, L1 larvae on cotton leaf discs, 3 days after infestation
Description: Example B9: Activity Against Spodoptera littoralis (Egyptian Cotton Leaf Worm)
Cotton leaf discs were placed onto agar in 24-well microtiter plates and sprayed with aqueous test solutions prepared from 10′000 ppm DMSO stock solutions. After drying the leaf discs were infested with five L1 larvae. The samples were assessed for mortality, anti-feeding effect, and growth inhibition in comparison to untreated samples 3 days after infestation. Control of Spodoptera littoralis by a test sample is given when at least one of the categories mortality, anti-feedant effect, and growth inhibition is higher than the untreated sample.

[9] = tested on: Myzus persicae (Green Peach Aphid); experiment: Example B7: Activity against Myzus persicae (green peach aphid), roots of pea seedlings in test solution; details: 144 h, test rate of 24 ppm, roots of infested pea seedlings in test solution, 6 days
Description: Example B7: Activity Against Myzus persicae (Green Peach Aphid)
Roots of pea seedlings infested with an aphid population of mixed ages were placed directly in the aqueous test solutions prepared from 10′000 DMSO stock solutions. The samples were assessed for mortality 6 days after placing seedlings in test solutions.

[10] = tested on: Carpocapsa (Cydia) pomonella (Codling Moth); experiment: Example B15: Activity against Carpocapsa (Cydia) pomonella (codling moth), larvicide, feeding/contact; details: 336 h, application rate of 12.5 ppm, L1 larvae on sprayed diet cubes, 14 days after infestation, read-out: effect in at least one of the two categories (mortality or growth inhibition)
Description: Example B15: Activity Against Carpocapsa (Cydia) pomonella (Codling Moth), Larvicide, Feeding/Contact
Diet cubes coated with paraffin were sprayed with diluted test solutions in an application chamber. After drying off the treated cubes (10 replicates) were infested with 1 L1 larvae. Samples were incubated at 26-27° C. and checked 14 days after infestation for mortality and growth inhibition.

[11] = tested on: Tetranychus urticae (Two-Spotted Spider Mite); experiment: Example B10: Activity against Tetranychus urticae (two-spotted spider mite), sprayed bean leaf discs; details: foliar, 192 h, application rate of 200 ppm, mixed population (mobile stages) on bean leaf discs, 8 days after infestation
Description: Example B10: Activity Against Tetranychus urticae (Two-Spotted Spider Mite)
Bean leaf discs on agar in 24-well microtiter plates were sprayed with aqueous test solutions prepared from 10′000 ppm DMSO stock solutions. After drying the leaf discs were infested with a mite population of mixed ages. The samples were assessed for mortality on mixed population (mobile stages) 8 days after infestation.

[12] = tested on: Plutella xylostella (Diamond Back Moth); experiment: Example B5: Activity against Plutella xylostella (diamond back moth), eggs, artificial diet; details: 192 h, application rate of 200 ppm, 8 days after infestation, read-out: effect in at least one of the two categories (mortality or growth inhibition)
Description: Example B5: Activity Against Plutella xylostella (Diamond Back Moth)
as §1, with “drying, Plutella eggs were pipetted through a plastic stencil onto a gel blotting paper and” for “drying,”, “plate was closed” for “plates were infested”, “it.” for “L2 larvae (10 to 15 per well).”, “8” for “5”

CCS(=O)(=O)c1cc(OC(C)(C)C#N)cnc1-c1nc2cc(C(F)(F)F)nnc2n1C [Compound P2, 2-[[5-ethylsulfonyl-6-[7-methyl-3-(trifluoromethyl)imidazo[4,5-c]pyridazin-6-yl]-3-pyridyl]oxy]-2-methyl-propanenitrile]
≥ 80%: mortality at 200 ppm [1] | mortality at 200 ppm [2] | mortality at 12.5 ppm [3] | mortality at 50 ppm [4] | percent effect (mortality or growth inhibition) at 200 ppm [5] | percent effect (mortality or growth inhibition) at 200 ppm [6] | percent effect (mortality or growth inhibition) at 200 ppm [7] | percent control (mortality, anti-feedant effect or growth inhibition) at 200 ppm [8] | mortality at 24 ppm [9]

CCS(=O)(=O)c1cc(OC(C)(C)C#N)c(C)nc1-c1nc2cc(C(F)(F)F)cnc2n1C [Compound P4, 2-[[5-ethylsulfonyl-2-methyl-6-[3-methyl-6-(trifluoromethyl)imidazo[4,5-b]pyridin-2-yl]-3-pyridyl]oxy]-2-methyl-propanenitrile]
≥ 80%: mortality at 200 ppm [1] | percent effect (mortality or growth inhibition) at 12.5 ppm [10] | mortality at 200 ppm [2] | mortality at 200 ppm [11] | mortality at 12.5 ppm [3] | percent effect (mortality or growth inhibition) at 200 ppm [5] | percent effect (mortality or growth inhibition) at 200 ppm [6] | percent effect (mortality or growth inhibition) at 200 ppm [7] | percent control (mortality, anti-feedant effect or growth inhibition) at 200 ppm [8]

CCS(=O)(=O)c1cc(OC(C)(C)C#N)cnc1-c1nc2cc(C(F)(F)F)n(OC)c(=O)c2n1C [Compound P5, 2-[[5-ethylsulfonyl-6-[5-methoxy-3-methyl-4-oxo-6-(trifluoromethyl)imidazo[4,5-c]pyridin-2-yl]-3-pyridyl]oxy]-2-methyl-propanenitrile]
≥ 80%: mortality at 200 ppm [1] | percent effect (mortality or growth inhibition) at 12.5 ppm [10] | mortality at 200 ppm [2] | mortality at 200 ppm [11] | mortality at 12.5 ppm [3] | percent effect (mortality or growth inhibition) at 200 ppm [5] | percent effect (mortality or growth inhibition) at 200 ppm [6] | percent effect (mortality or growth inhibition) at 200 ppm [7] | percent control (mortality, anti-feedant effect or growth inhibition) at 200 ppm [8] | mortality at 24 ppm [9]

CCS(=O)(=O)c1cc(OC(C)(C)C#N)c(C)nc1-c1nc2cc(C(F)(F)F)nnc2n1C [Compound P11, 2-[[5-ethylsulfonyl-2-methyl-6-[7-methyl-3-(trifluoromethyl)imidazo[4,5-c]pyridazin-6-yl]-3-pyridyl]oxy]-2-methyl-propanenitrile]
≥ 80%: mortality at 200 ppm [1] | percent effect (mortality or growth inhibition) at 12.5 ppm [10] | mortality at 200 ppm [2] | mortality at 12.5 ppm [3] | mortality at 50 ppm [4] | percent effect (mortality or growth inhibition) at 200 ppm [5] | percent effect (mortality or growth inhibition) at 200 ppm [6] | percent effect (mortality or growth inhibition) at 200 ppm [7] | percent control (mortality, anti-feedant effect or growth inhibition) at 200 ppm [8] | mortality at 24 ppm [9]

CCS(=O)(=O)c1cc(OC(C)(C)C#N)cnc1-c1nc2cc3c(cc2n1C)OC(F)(F)O3 [Compound P15, 2-[[6-(2,2-difluoro-7-methyl-[1,3]dioxolo[4,5-f]benzimidazol-6-yl)-5-ethylsulfonyl-3-pyridyl]oxy]-2-methyl-propanenitrile]
≥ 80%: mortality at 200 ppm [1] | percent effect (mortality or growth inhibition) at 200 ppm [12] | percent effect (mortality or growth inhibition) at 12.5 ppm [10] | mortality at 200 ppm [2] | percent effect (mortality or growth inhibition) at 200 ppm [5] | percent effect (mortality or growth inhibition) at 200 ppm [7] | percent control (mortality, anti-feedant effect or growth inhibition) at 200 ppm [8]

CCS(=O)(=O)c1cc(OC(C)(C)C#N)cnc1-c1nc2cc3c(cc2o1)OC(F)(F)O3 [Compound P16, 2-[[6-(2,2-difluoro-[1,3]dioxolo[4,5-f][1,3]benzoxazol-6-yl)-5-ethylsulfonyl-3-pyridyl]oxy]-2-methyl-propanenitrile]
≥ 80%: percent effect (mortality or growth inhibition) at 200 ppm [12] | percent effect (mortality or growth inhibition) at 12.5 ppm [10] | mortality at 200 ppm [2] | percent effect (mortality or growth inhibition) at 200 ppm [5] | percent effect (mortality or growth inhibition) at 200 ppm [7] | percent control (mortality, anti-feedant effect or growth inhibition) at 200 ppm [8]
